Laboratory results published in ChEMBL document CHEMBL1142186, “Multistep resistance selection and postantibiotic-effect studies of the antipneumococcal activity of LBM415 compared to other agents” (2007).
≈ marks a conversion by molar mass, not a printed value.

Assays:
Format in all cases: functional
Streptococcus pneumoniae [1] = test: Antibacterial activity against gatifloxacin resistance selected Streptococcus pneumoniae 37 with GyrA S81Y, GyrB E474K and ParC S79Y mutation after 10 antibiotic-free subcultures by macrodilution method
Streptococcus pneumoniae [2] = test: Antibacterial activity against Streptococcus pneumoniae assessed as period of suppression of bacterial growth
Streptococcus pneumoniae [3] = test: Antibacterial activity against moxifloxacin resistance selected Streptococcus pneumoniae 24 with GyrA S81Y, GyrB P413S and ParC S79F mutation after 10 antibiotic-free subcultures by macrodilution method
Streptococcus pneumoniae [4] = test: Antibacterial activity against azithromycin resistance selected Streptococcus pneumoniae 2527 after 10 antibiotic-free subcultures by macrodilution method
Streptococcus pneumoniae [5] = test: Antibacterial activity against levofloxacin resistance selected Streptococcus pneumoniae 3009 with GyrA S81Y and ParC S79Y mutation after 10 antibiotic-free subcultures by macrodilution method
Streptococcus pneumoniae [6] = test: Antibacterial activity against gatifloxacin resistance selected Streptococcus pneumoniae 3009 after 10 antibiotic-free subcultures by macrodilution method
Streptococcus pneumoniae [7] = test: Antibacterial activity against moxifloxacin resistance selected Streptococcus pneumoniae 3009 with GyrA S81F and ParC D83N mutation after 10 antibiotic-free subcultures by macrodilution method
Streptococcus pneumoniae [8] = test: Antibacterial activity against clarithromycin resistance selected Streptococcus pneumoniae 3009 after 10 antibiotic-free subcultures by macrodilution method
Streptococcus pneumoniae [9] = test: Antibacterial activity against moxifloxacin resistance selected Streptococcus pneumoniae 1076 with ParC S79Y mutation after 10 antibiotic-free subcultures by macrodilution method
Streptococcus pneumoniae [10] = test: Antibacterial activity against gatifloxacin resistance selected Streptococcus pneumoniae 1076 with ParC S79Y mutation after 10 antibiotic-free subcultures by macrodilution method
Streptococcus pneumoniae [11] = test: Antibacterial activity against azithromycin resistance selected Streptococcus pneumoniae 1077 with 23S rRNA A2058G mutation after 10 antibiotic-free subcultures by macrodilution method
Streptococcus pneumoniae [12] = test: Antibacterial activity against moxifloxacin resistance selected Streptococcus pneumoniae 3665 with GyrA S81Y mutation after 10 antibiotic-free subcultures by macrodilution method
Streptococcus pneumoniae [13] = test: Antibacterial activity against clarithromycin resistance selected Streptococcus pneumoniae 3665 after 10 antibiotic-free subcultures by macrodilution method
Streptococcus pneumoniae [14] = test: Antibacterial activity against moxifloxacin resistance selected Streptococcus pneumoniae 3676 with GyrA E85G, GyrB S478I and ParC S79Y mutation after 10 antibiotic-free subcultures by macrodilution method
Streptococcus pneumoniae [15] = test: Antibacterial activity against clarithromycin resistance selected Streptococcus pneumoniae 3676 after 10 antibiotic-free subcultures by macrodilution method
Streptococcus pneumoniae [16] = test: Antibacterial activity against moxifloxacin resistance selected Streptococcus pneumoniae 3243 after 10 antibiotic-free subcultures by macrodilution method
Streptococcus pneumoniae [17] = test: Antibacterial activity against azithromycin resistance selected Streptococcus pneumoniae 3243 with L22 insertion 93SFRPRA94 mutation after 10 antibiotic-free subcultures by macrodilution method
Streptococcus pneumoniae [18] = test: Antibacterial activity against clarithromycin resistance selected Streptococcus pneumoniae 3243 with 23S rRNA A2059T mutation after 10 antibiotic-free subcultures by macrodilution method
Streptococcus pneumoniae [19] = test: Antibacterial activity against moxifloxacin resistance selected Streptococcus pneumoniae 19 with GyrA S81F mutation after 10 antibiotic-free subcultures by macrodilution method
Streptococcus pneumoniae [20] = test: Antibacterial activity against levofloxacin resistance selected Streptococcus pneumoniae 19 with GyrA S81Y and ParC D83Y mutation after 10 antibiotic-free subcultures by macrodilution method

Row | Structure (SMILES) | MIC (Streptococcus pneumoniae [1]) [µg/mL] | Post Antibiotic Effe (Streptococcus pneumoniae [2]) [h] | MIC (Streptococcus pneumoniae [3]) [µg/mL] | MIC (Streptococcus pneumoniae [4]) [µg/mL] | MIC (Streptococcus pneumoniae [5]) [µg/mL] | MIC (Streptococcus pneumoniae [6]) [µg/mL] | MIC (Streptococcus pneumoniae [7]) [µg/mL] | MIC (Streptococcus pneumoniae [8]) [µg/mL] | MIC (Streptococcus pneumoniae [9]) [µg/mL] | MIC (Streptococcus pneumoniae [10]) [µg/mL] | MIC (Streptococcus pneumoniae [11]) [µg/mL] | MIC (Streptococcus pneumoniae [12]) [µg/mL] | MIC (Streptococcus pneumoniae [13]) [µg/mL] | MIC (Streptococcus pneumoniae [14]) [µg/mL] | MIC (Streptococcus pneumoniae [15]) [µg/mL] | MIC (Streptococcus pneumoniae [16]) [µg/mL] | MIC (Streptococcus pneumoniae [17]) [µg/mL] | MIC (Streptococcus pneumoniae [18]) [µg/mL] | MIC (Streptococcus pneumoniae [19]) [µg/mL] | MIC (Streptococcus pneumoniae [20]) [µg/mL]
1 | C[C@H]1COc2c(N3CCN(C)CC3)c(F)cc3c(=O)c(C(=O)O)cn1c23.C[C@H]1COc2c(N3CCN(C)CC3)c(F)cc3c(=O)c(C(=O)O)cn1c23.O [LEVOFLOXACIN] | 64 | 1.3 |  |  |  |  |  |  |  |  |  |  |  |  |  |  |  |  |  | 
2 | CO/N=C(\C(=O)N[C@@H]1C(=O)N2C(C(=O)O)=C(COC(N)=O)CS[C@H]12)c1ccco1 [CEFUROXIME] | 2 (≈ 4.71 µM) | 1.5 | 2 (≈ 4.71 µM) | 16 (≈ 37.7 µM) | ≤ 0.016 | 0.03 (≈ 0.0707 µM) | 0.03 (≈ 0.0707 µM) | 0.03 (≈ 0.0707 µM) | 0.03 (≈ 0.0707 µM) | 0.125 (≈ 0.295 µM) | 0.03 (≈ 0.0707 µM) | 0.5 (≈ 1.18 µM) | 0.125 (≈ 0.295 µM) | 0.125 (≈ 0.295 µM) | 0.125 (≈ 0.295 µM) | 0.25 (≈ 0.589 µM) | 0.5 (≈ 1.18 µM) | 0.25 (≈ 0.589 µM) | 2 (≈ 4.71 µM) | 2 (≈ 4.71 µM)
3 | C[C@@H](O)[C@H]1C(=O)N2C(C(=O)O)=C(SCCNC=N)C[C@H]12 [IMIPENEM ANHYDROUS] | 0.5 (≈ 1.67 µM) | 1.7 | 0.5 (≈ 1.67 µM) | 0.5 (≈ 1.67 µM) | ≤ 0.004 | 0.008 (≈ 0.0267 µM) | 0.008 (≈ 0.0267 µM) | ≤ 0.004 | 0.008 (≈ 0.0267 µM) | 0.008 (≈ 0.0267 µM) | 0.008 (≈ 0.0267 µM) | 0.03 (≈ 0.1 µM) | 0.03 (≈ 0.1 µM) | 0.03 (≈ 0.1 µM) | 0.016 (≈ 0.0534 µM) | 0.004 (≈ 0.0134 µM) | 0.03 (≈ 0.1 µM) | 0.03 (≈ 0.1 µM) | 0.5 (≈ 1.67 µM) | 0.5 (≈ 1.67 µM)
